The values that follow come from patent US9651566B2, “Method for determining the propensity for calcification” (Rheinisch-Westfälische Technische Hochschule Aachen, priority 2011, dated 2017).

Test [1] deals with transition of primary CPPs into secondary CPPs. Put plainly: Nephelometer assay in the presence of serum. As to conditions: for transition rate of primary CPPs into secondary CPPs (T50): in the presence of the substance, cf. FIG. 2A. It counts as biochemical, human. How it is done:
Stock Solutions: 1. NaCl-solution: NaCl 140 mM, 2. Calcium solution: CaCl2 40 mM+Hepes 100 mM+NaCI 140 mM, pH adjusted with NaOH 10 mM to 7.40 at 37° C., 3. […] Na2HP04 19.44 mM+NaH2PO4 4.56 mM+Hepes 100 mM+NaCI 140 mM, pH adjusted with NaOH 10 mM to 7.40 at 37° C. […] These pipetting steps were performed in the following order: 1. NaCl-solution: 20 μl/well, 2. serum 80 μl/well, 3. shaking for 1 minute, 4. phosphate solution 50 μl/well, 5. shaking for 1 minute, 6. calcium solution 50 μl/well, shaking for 1 minute. Air bubbles in the wells were disintegrated with a pocket lighter and the 96-well covered with a […] adhesive sealing film for microplates. […] Assay conditions and Nephelostar® settings: measurement in a thermo constant room at 34.5° C. with the internal radiation of the device turned off. This led to an infernal measurement temperature of 36.5° C. to 37° C. The Nephelostar® was operated and controlled via the Nephelostar provider's Galaxy Software on a Windows Computer platform. The assay was performed with 200 cycles of 1.5 seconds measurement time per well and a position delay of 0.1 seconds in horizontal plate reading mode, adding up to a cycle time of 180 seconds/cycle for our Standard assay. This adds up to a total assay run time of 10 hours per assay. […] After completion of the run, data were transferred to Excel® and transposed from lines into columns. Data columns were copied into the GraphPad Prism® program to generate an XY-graph. Data were then processed by calculating nonlinear regression in the “log(agonist) vs. response-variable slope (four Parameters)” mode using the “robust fit” fitting method. The resulting values obtained for T50 and RNUT50 were further processed as required. We chose physiological conditions for temperature (37° C.) and pH (7.40 at 37° C.), and designed the assay for a final volume of 200 μl per well. These 200 μl consisted of 20 μl NaCl 140 mM, 80 μl serum, 50 μl phosphate 24 mM and 50 μl calcium 40 mM solution which were mixed in this order. […]

The test system is the same in test [2]. The experiment in a line: Nephelometry in the absence of serum. The class given is biochemical. As to conditions: FIG. 6A.

For the molecule `[Mg+2]` [magnesium], the “transition rate of primary CPPs into secondary CPPs (T50)” value in test [1] is “delayed”.

As for `O=S([O-])([O-])=S.[Na+].[Na+]` [sodium thiosulfate], the “impact on the assay” value in test [1] (spiked to serum in amounts of up to 40 mM) is “did not have any impact”.

On to phosphate, for which, in test [1], the “transition rate of primary CPPs into secondary CPPs (T50)” value is listed as “accelerated”.

B1: fetuin A: the strongest intrinsic serum calcification inhibitor (protein, UniProt P02765 19-300; P02765 341-367, looked up)
Alpha-2-HS-glycoprotein chain … 1: APHGPGLIYRQPNCDDPETEEAALVAIDYINQNLPWGYKHTLNQIDEVKVWPQQPSGELFEIEIDTLETTCHVLDPTPVARCSVRQLKEHAVEGDCDFQLLKLDGKFSVVYAKCDSSPDSAEDVRKVCQDCPLLAPLNDTRVVHAAKAALAAFNAQNNGSNFQLEEISRAQLVPLPPSTYVEFTVSGTDCVAKEATEAAKCNLLAEKQYGFCKATLSEKLGGAEVAVTCMVFQTQPVSSQPQPEGANEAVPTPVVDPDAPPSPPLGAPGLPPAGSPPDSHVL
Alpha-2-HS-glycoprotein chain … 2: TVVQPSVGAAAGPVVPPCPGRIRHFKV
On to B1, for which, in test [2], the “influence on the assay (spiked serum components)” value is “significantly influences the assay”.
